Assay results as given in patent US12180159B2, “Activators of the unfolded protein response” (The Board of Trustees of the University of Illinois, priority 2018, dated 2024).

Columns and labels:
[1] = system: protein synthesis in Caov-3 cells; experiment: Inhibition of protein synthesis (35S-methionine incorporation); type: cell-based, human; conditions: 1,000 nM
Description: ERα positive Caov-3, human ovarian cancer cells, were treated for the indicated times with 1,000 nM BHPI or 1,000 nM (−)-105. Cells were briefly labeled with ^35S-methionine. Incorporation of labeled ^35S-methionine into protein was determined by trichloroacetic acid precipitation and trapping of precipitated protein, but not free amino acids, in small Whatman hardened ashless filters. After solubilizing the protein in the filters with base and neutralization with acid, the samples were counted in a liquid scintillation counter. Shown is the average (n≥3) percent inhibition of protein synthesis compared to the 0-time sample. The near quantitative inhibition of protein synthesis by (−)-105 is consistent with (−)-105 inducing lethal hyperactivation of the PERK arm of the UPR. Even non-growing cells are constantly degrading protein and making new proteins. Cells in which nearly all (>90%) of protein synthesis is inhibited cannot grow and will ultimately die.

[2] = system: MCF-7 cells; type: cell-based
Description: FIG. 36. Discovery of SERK-F6 (also known as, C(−)-105, (−)-105, (R)-105, (−)-1, or (R)-1), a compound that kills ERα-positive cancer cells. a, Chemical structures of BHPI and racemic compound 1 (i.e. (±)-1), and their cytotoxic activity on T47D breast cancer cells after 24-hour incubations with concentrations as indicated in nM. Cells were stained with annexin V-FITC and PI dyes prior to analysis via flow cytometry. […] Cells were incubated with SERK-F6 or positive control, Raptinal, for 24 hours and then stained with annexin V-FITC and PI dyes and analyzed via flow cytometry. Error bars represent S.E.M of 3 independent replicates. c, IC50 values of SERK-F6 after 24-hour incubation against a panel of cancer cell lines grouped by their reported ERα status. Cell viability was measured by Alamar blue fluorescence and set relative to a vehicle control and a quantitative dead control treated with Raptinal. Error bars represent S.E.M of 3 independent experiments. d, Crystal violet staining of T47D cells after 24-hour incubations with compounds and concentrations as indicated. […] Cell number was determined by MTS.
Through a medicinal chemistry campaign, (±)-1 was discovered to show an unexpected cytotoxic phenotype (FIG. 36A). […] The dose dependent activity of SERK-F6 was determined against a panel of cancer cell lines (FIG. 36C and FIG. 37A) for ERα.

[3] = system: MCF-7 cells; experiment: Alamar blue fluorescence 24-hour cell death assay, MCF-7; type: cell-based, human; conditions: MCF7, 24 hour incubation, Alamar Blue (FIG. 4)
Description: ALAMAR BLUE/RAPTINAL ASSAY: Live cells maintain a reducing environment. The non-fluorescent cell permeable ingredient of Alamar Blue® (resazurin) is taken up by cells. In living cells, it is reduced to the fluorescent compound resorufin. Using a standard curve of cell number versus fluorescence the number of live cells in a test sample can be determined. At high concentrations raptinal kills 100% of cells. The vehicle in which the test compound is dissolved is not toxic. Thus, after subtracting the blank for medium alone, the fluorescence reading for vehicle corresponds to 100% viable cells and the signal for raptinal corresponds to 0% viable cells. […]
ALAMAR BLUE RAPTINAL ASSAYS: Cells were plated at 4,000-10,000 cells/well (96 well plate), usually in 50 μl of medium. […] After 24 hours Alamar Blue reagent was added and fluorescence in the wells was read (BMG PheraStar or Molecular Devices Spectra Max M3 Microplate Reader). % relative death was determined by setting the reading for raptinal-treated cells to 100% dead cells and the reading for vehicle-treated cells to 0% dead cells.
Preparative gram-scale chiral separation of (±)-1 yields enantiopure (R)-1 and (S)-1 with opposite optical rotations (Scheme 5). […] Values were obtained after 24-hour incubation utilizing Alamar blue fluorescence assay normalized to live and death controls (vehicle and raptinal treated). […]

[4] = system: MCF-7 tumors; experiment: MCF-7 orthotopic tumor model; type: in vivo, mouse
Description: FIG. 39. SERK-F6 eradicates wild-type ERα tumors via hyperactivation of aUPR. a, MCF-7 orthotopic tumors were established in Nu/J ovariectomized mice supplemented with a 60 day E2 pellet (0.36 mg) and grown to ˜400 mm^3 (28 days to establish), randomized, then treated with vehicle daily (n=3), vehicle weekly (n=3), fulv. weekly (5 mg/mouse, s.c., n=6), SERK-F6 daily (10 or 40 mg/kg p.o.). Vehicle arms were averaged. p values: *: p<0.05, **: p<0.01, ***: p<0.001, ****: p<0.0001. Tumor images were taken at the end of the study (day 21) and are representative of all tumors (n=6). b-e, MCF-7 cells were orthotopically bi-laterally grafted and tumors were grown until total tumor burden was ˜ 400 mm^3 prior to daily treatment with vehicle or SERK-F6 (40 mg/kg p.o.). Mice (n=5 per arm) were sacrificed after 3 days (b,c) and 7 days (d,e) and tumors harvested. […] Vinculin (Vin) was used as a loading control. […] Error bars represent S.E.M.
FIG. 40. SERK-F6 is tolerated, reaches biologically relevant concentrations, and crosses the blood-brain barrier in vivo. a, Serum concentrations of SERK-F6 after indicated doses, route of administration, and time. Concentration was determined via LC/MS/MS analysis. […] AUC: Area Under the Curve, Cmax: maximum concentration, t1/2: half-life. c,d, Mice (CD-1) were treated with the indicated doses and times, then sacrificed and their serum and brains collected. Concentrations were determined via LC/MS/MS analysis. […] Treatment arms: vehicle daily (n=3), vehicle weekly (n=3), fulv. weekly (5 mg/mouse, s.c., n=6), SERK-F6 daily (10 or 40 mg/kg p.o.). Vehicle arms were combined. g, Mass of tumors harvested from mice. h, observed murine weight during this MCF-7 study (n=6). i,j, Tumor measurements for MCF-7 bilateral orthotopic model (n=4-5).
To probe the efficacy of SERK-F6 for killing ERα positive tumors, large MCF-7 tumors were grown and then intervened with therapy. […] The mice were then sacrificed prior to complete tumor eradication.

O=C1Nc2c(C(F)(F)F)cccc2C1(c1ccc(O)cc1)c1ccc(OC(F)(F)F)cc1 (single isomer, unassigned; (-)) [(−)-105, 3-(4-hydroxyphenyl)-3-(4-(trifluoromethoxy)phenyl)-7-(trifluoromethyl)indolin-2-one]
inhibition of the synthesis of new proteins [1]: near-quantitative, inhibition
cytotoxicity to ERα positive MCF-7 cells [2]: cytotoxic
death of MCF-7 cells ([2]; FIG. 10): induces dose-dependent death
ability to kill compared with BHPI and 01-15 [3]: superior to BHPI and 01-15
in-vivo UPR markers in tumors ([4]; 40 mg/kg p.o., tumors harvested before eradication): increases in P-PERK and P-eiF2alpha levels
effect on large established MCF-7 tumors ([4]; mouse, in vivo): dramatic tumor regressions
